These results are taken from patent US20230159442A1, “CELLULAR ENERGY COMPOUNDS, COMPOSITIONS, AND METHODS OF USE THEREOF” (priority 2021, published 2023).

The solubility is the dissolved amount per volume that the medium holds. Lower therefore signals a poorly soluble substance.

In one data set the test system is T cells. It counts as cell-based, human. The settings on record: T cells with T2 cells, Spike peptide […]; vs media alone.
Data set [1] deals with Calu-3 (human airway epithelial cell line) host cells. In kind it is cell-based.
Data set [2] can be described thus: Saturated aqueous solubility determination. Conditions: for solubility at 1.5 h: deionized water, 25 °C, water, thermodynamic from solid; for Ratio (relative to CM): solubility relative to creatine monohydrate. The protocol: After 1.5 hour, the saturated solutions were vortexed and 2-ml aliquots removed and centrifuged in microcentrifuge tubes at 11,000 rpm for 5 min. Concentrations were analyzed by HPLC by diluting 500 μL of supernatant with mobile phase (500 μL). The mean±standard deviation of the saturation solubility for each antiviral therapeutic compound is calculated from the corresponding standard curves.

Data set [3] relates to Calu-3 (human airway epithelial cell line) host cells. In kind it is cell-based. This is another data set of the same source.
Data set [4] relates to Madin Darby canine kidney (MDCK) monolayers. Put plainly: Flux per hour in MDCK monolayers (contemplated). It counts as in vitro ADME. From the text:
[…]. […] […].

A further data set deals with Caco-2 monolayers. The settings on record: cited from earlier work.

Like-named read-outs stand apart in the source and are kept apart here.

Turning to `C[N+](C)(C)CC(=O)OC1CCCC1.[Br-]` [betaine cyclopentyl ester], in the data set with T cells, the “release of IFNg from T cells” value is on record as “increased over the control”. In addition, the “reduction of TNF expression” value in data set [1] is reported as “slightly reduces”. Also, in data set [2], the solubility at 1.5 h was over 600 mg/mL and the “Ratio (relative to CM)” value was over 29. For the same compound, in data set [2] (not shown), the “aqueous solubility compared with betaine hydrochloride” value was “significantly greater than betaine hydrochloride”. Besides, in data set [3], the “IL-1β expression as percent of the expression when no compound is present” value was “less than 20%”, the “IL-6 expression as percent of the expression when no compound is present” value was “less than 55%”, the “TNF expression as percent of the expression when no compound is present” value was “less than 20%” and the “reduction of IL-6 expression” value is reported as “about 60%”. For the same compound, in data set [3], the “reduction of TNF expression” value was “about 45%”.

With `CN(CC(=O)OC1CCCCC1)C(=N)N.Cc1ccc(S(=O)(=O)O)cc1` [creatine cyclohexyl ester], the “release of IFNg from T cells” value in the data set with T cells is given as “increased over the control”. For the same compound, in data set [1], the “IL-1β expression as percent of the expression when no compound is present” value was “less than 20%” and the “IL-6 expression as percent of the expression when no compound is present” value is “less than 30%”. Further, in data set [2], the solubility at 1.5 h lay within 15 to 20 mg/mL and the “Ratio (relative to CM)” value is on record as 0.71. For the same compound, the “flux per hour relative to creatine monohydrate” value in data set [4] was “at least double”.

Take `CCOC(=O)CN(C)C(=N)N.Cl` [creatine ethyl ester hydrochloride]: in data set [2], the solubility at 1.5 h is over 200 mg/mL. The “permeability relative to creatine monohydrate” value with Caco-2 monolayers is 15 fold.

As to `CCCCCCCCCCCC(=O)OCC(COC(=O)CCCCCCCCCCC)OC(=O)CN(C)C(=N)N` [creatine glycerol laurate ester], the “flux per hour relative to creatine monohydrate” value in data set [4] is given as “at least double”.

`CN(CC(=O)O)C(=N)N.Cl` [creatine hydrochloride]: the “release of IFNg from T cells” value in the data set on T cells is reported as “increased over the control”. The “reduction of TNF expression” value in data set [1] was “slightly reduces”; in data set [3] it was “about 25%”. Further, in data set [3], the “reduction of CXCL2 expression” value is 25 to 30%.

Consider `CC(C)CCOC(=O)CN(C)C(=N)N.Cl` [creatine isopentyl ester], for which the “release of IFNg from T cells” value in the data set with T cells was “increased over the control”. In addition, the “IL-1β expression as percent of the expression when no compound is present” value in data set [1] is on record as “less than 35%”. In addition, in data set [2], the solubility at 1.5 h is over 600 mg/mL and the “Ratio (relative to CM)” value is on record as over 29.

Regarding `CN(CC(=O)O)C(=N)N.O` [creatine monohydrate, reference compound], the apparent permeability coefficient result in the data set with Caco-2 monolayers is listed as “about 0.12±0.004 10^−6 cm/s”.

On to `CCCCCCCCCCCC(=O)OC(C)COC(=O)CN(C)C(=N)N` (stereo not shown) [creatine propylene glycol laurate ester], for which the “flux per hour relative to creatine monohydrate” value in data set [4] is reported as “at least double”.

Regarding “ethyl (α-guanido-methyl) ethanoate [Alpha-GEE]”, the “release of IFNg from T cells” value in the data set on T cells is recorded as “increased over the control”. Moreover, the “reduction of CXCL2 expression” value in data set [1] is given as about 70%.
